Literature values as cited in US12070034B2, “Synergistic herbicidal combinations” (UPL LTD, priority 2017, dated 2024).

Details: acid form, before neutralisation with ammonium phosphate dibasic

For `Nc1c(Cl)c(Cl)nc(C(=O)O)c1Cl` [Picloram acid], the solubility is given as 560 mg/I.
In the case of `O=C(O)COc1ccc(Cl)cc1Cl` [2,4-D acid], the solubility is given as 311 mg/I.
